Key:
[1] = Evaluation of solubility in tetrahydrofuran; format: physicochemical; details: 25° C., {100/(100+X)}×100
Method: The thus obtained triphenylamine derivatives HTM-1 to HTM-14 each as the hole transport material were evaluated for the solubility. A small amount of tetrahydrofuran was added to 100 mg of each triphenylamine derivative under the temperature of 25° C. Then, the resulting sample was vibrated and left to stand. This process was repeated to measure the added amount X (mg) of tetrahydrofuran dissolved in the triphenylamine derivative to saturation. With the added amount X, the equation below gives the solubility. Solubility (%)={100/(100+X)}×100 <Evaluation of Ionization Potentials>

[2] = Evaluation of ionization potential (AC-1 ultraviolet photoelectron analyzer); format: physicochemical; details: atmosphere type ultraviolet photoelectron analyzing apparatus AC-1
Source text: The respective triphenylamine derivatives HTM-1 to HTM-14 were each evaluated for the ionization potential. An atmosphere type ultraviolet photoelectron analyzing apparatus (AC-1 manufactured by Riken Keiki Co., Ltd.) was used to measure the ionization potential.

SMILES | THF Solubility [1] [%] | Ionization Potential [2] [eV]
CCOc1ccccc1N(c1ccc(/C=C/C=C/c2ccccc2)cc1)c1ccc(/C=C/C=C/c2ccccc2)cc1 [HTM-1] | 25.0 | 5.38
CCOc1cccc(C)c1N(c1ccc(/C=C/C=C/c2ccccc2)cc1)c1ccc(/C=C/C=C/c2ccccc2)cc1 [HTM-2] | 23.5 | 5.37
CCCCOc1ccccc1N(c1ccc(/C=C/C=C/c2ccccc2)cc1)c1ccc(/C=C/C=C/c2ccccc2)cc1 [HTM-3] | 24.1 | 5.39
CCOc1cc(C)ccc1N(c1ccc(/C=C/C=C/c2ccccc2)cc1)c1ccc(/C=C/C=C/c2ccccc2)cc1 [HTM-4] | 22.8 | 5.39
COc1ccc(N(c2ccc(/C=C/C=C/c3ccccc3)cc2)c2ccc(/C=C/C=C/c3ccccc3)cc2)c(OC)c1 [HTM-5] | 20.0 | 5.33
COc1ccc(N(c2ccc(/C=C/C=C/c3ccccc3)cc2)c2ccc(/C=C/C=C/c3ccccc3)cc2)c(C)c1 [HTM-6] | 24.5 | 5.38
CCOc1ccc(N(c2ccc(/C=C/C=C/c3ccccc3)cc2)c2ccc(/C=C/C=C/c3ccccc3)cc2)c(C)c1 [HTM-7] | 25.8 | 5.39
C(/C=C/c1ccc(N(c2ccc(/C=C/C=C/c3ccccc3)cc2)c2ccc(Oc3ccccc3)cc2)cc1)=C\c1ccccc1 [HTM-8] | 21.0 | 5.48
Cc1ccc(N(c2ccc(/C=C/C=C/c3ccccc3)cc2)c2ccc(/C=C/C=C/c3ccccc3)cc2)c(C)c1 [HTM-9] | 12.3 | 5.46
CCCCc1ccc(N(c2ccc(/C=C/C=C/c3ccccc3)cc2)c2ccc(/C=C/C=C/c3ccccc3)cc2)cc1 [HTM-10] | 17.8 | 5.42
Cc1cccc(C)c1N(c1ccc(/C=C/C=C/c2ccccc2)cc1)c1ccc(/C=C/C=C/c2ccccc2)cc1 [HTM-11] | 11.4 | 5.55
COc1ccc(N(c2ccc(/C=C/C=C/c3ccccc3)cc2)c2ccc(/C=C/C=C/c3ccccc3)cc2)cc1 [HTM-12] | 7.5 | 5.43
COc1cccc(N(c2ccc(/C=C/C=C/c3ccccc3)cc2)c2ccc(/C=C/C=C/c3ccccc3)cc2)c1 [HTM-13] | 6.1 | 5.45
COc1ccccc1N(c1ccc(/C=C/C=C/c2ccccc2)cc1)c1ccc(/C=C/C=C/c2ccccc2)cc1 [HTM-14] | 6.3 | 5.43

Source: US9376371B2, “Triphenylamine derivative, method for manufacturing the same, and electrophotographic photosensitive member” (KYOCERA DOCUMENT SOLUTIONS INC., priority 2013, dated 2016)
